Source: paper PMC6237146, “Electron transfer ferredoxins with unusual cluster binding motifs support secondary metabolism in many bacteria” (Chemical Science, 2018)

Tests used:
Type in all cases: binding
[1] = target: T1, CYP269A1 (Mycobacterium marinum, UniProt B2HPM5); test: UV/Vis heme Soret shift titration
T1 construct: produced in E. coli and purified; high-spin-like ferric heme (Soret 390 nm); gene near ferredoxin gene Mmar_3973 (Fdx4)
T1 sequence (B2HPM5 1-403): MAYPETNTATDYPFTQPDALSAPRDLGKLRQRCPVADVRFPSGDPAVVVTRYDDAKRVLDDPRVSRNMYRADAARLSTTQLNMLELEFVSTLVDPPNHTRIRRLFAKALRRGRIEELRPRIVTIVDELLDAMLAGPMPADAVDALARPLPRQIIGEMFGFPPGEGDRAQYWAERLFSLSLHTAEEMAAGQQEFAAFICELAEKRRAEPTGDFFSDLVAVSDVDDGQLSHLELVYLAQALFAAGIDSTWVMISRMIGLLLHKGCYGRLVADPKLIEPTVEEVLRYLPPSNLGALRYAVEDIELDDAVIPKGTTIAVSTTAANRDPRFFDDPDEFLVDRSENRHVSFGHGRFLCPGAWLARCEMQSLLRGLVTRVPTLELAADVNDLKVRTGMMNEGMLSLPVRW

[2] = target: T2, CYP147G1 (Mycobacterium marinum, UniProt B2HE89); test: UV/Vis heme spin-state shift titration; settings: read-out: dissociation constant
T2 construct: produced in E. coli, purified by two ion exchange steps; ferric heme
T2 sequence (B2HE89 1-422): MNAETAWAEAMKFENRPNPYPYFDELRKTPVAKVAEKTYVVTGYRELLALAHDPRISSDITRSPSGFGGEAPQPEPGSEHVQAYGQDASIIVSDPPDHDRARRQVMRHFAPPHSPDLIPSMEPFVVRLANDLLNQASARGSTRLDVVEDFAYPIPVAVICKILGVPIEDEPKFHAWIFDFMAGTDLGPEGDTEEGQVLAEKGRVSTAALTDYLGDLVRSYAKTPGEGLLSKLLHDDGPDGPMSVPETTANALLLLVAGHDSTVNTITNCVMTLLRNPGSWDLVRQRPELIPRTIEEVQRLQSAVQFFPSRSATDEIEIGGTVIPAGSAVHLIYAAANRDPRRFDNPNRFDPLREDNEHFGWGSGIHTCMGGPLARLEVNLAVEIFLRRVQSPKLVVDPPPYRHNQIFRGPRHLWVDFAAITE

[3] = target: T3, CYP278A1 (Mycobacterium marinum, UniProt B2HE37); test: UV/Vis heme spin-state shift titration
T3 construct: produced in E. coli and purified; ferric heme; gene near ferredoxin gene Mmar_2879 (Fdx2)
T3 sequence (B2HE37 1-427): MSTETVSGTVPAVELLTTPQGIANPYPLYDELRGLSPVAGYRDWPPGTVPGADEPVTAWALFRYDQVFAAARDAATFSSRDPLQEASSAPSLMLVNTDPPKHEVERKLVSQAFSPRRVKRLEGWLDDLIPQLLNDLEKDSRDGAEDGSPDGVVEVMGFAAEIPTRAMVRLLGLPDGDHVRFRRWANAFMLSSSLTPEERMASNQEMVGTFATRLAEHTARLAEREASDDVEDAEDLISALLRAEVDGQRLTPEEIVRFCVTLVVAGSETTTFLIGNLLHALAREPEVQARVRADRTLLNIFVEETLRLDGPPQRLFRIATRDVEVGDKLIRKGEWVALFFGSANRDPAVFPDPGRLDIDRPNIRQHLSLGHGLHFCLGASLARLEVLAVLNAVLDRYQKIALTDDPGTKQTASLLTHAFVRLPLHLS

[4] = target: T4, CYP150A5 (Mycobacterium marinum, UniProt B2HG29); test: UV/Vis heme spin-state shift titration
T4 construct: produced in E. coli and purified; ferric heme; gene near ferredoxin gene Mmar_4736 (Fdx8)
T4 sequence (B2HG29 1-423): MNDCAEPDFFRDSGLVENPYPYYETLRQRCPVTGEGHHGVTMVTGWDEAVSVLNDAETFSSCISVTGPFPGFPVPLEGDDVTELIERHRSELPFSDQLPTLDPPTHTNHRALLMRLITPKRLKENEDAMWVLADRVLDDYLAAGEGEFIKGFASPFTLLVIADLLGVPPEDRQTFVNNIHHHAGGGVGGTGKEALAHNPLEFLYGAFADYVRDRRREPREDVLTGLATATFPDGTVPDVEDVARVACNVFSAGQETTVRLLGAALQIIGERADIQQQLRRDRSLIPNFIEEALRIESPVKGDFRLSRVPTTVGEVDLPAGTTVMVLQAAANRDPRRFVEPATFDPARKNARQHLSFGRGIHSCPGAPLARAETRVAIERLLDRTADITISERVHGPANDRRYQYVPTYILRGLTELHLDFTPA

[5] = target: T2, CYP147G1; test: UV/Vis heme spin-state shift; settings: purified ferric enzyme; also oxidised to indigo in E. coli with FdR1/Fdx3

Clc1ccc(COC(Cn2ccnc2)c2ccc(Cl)cc2Cl)c(Cl)c1 (centres unmarked) [miconazole]
Kd [1]: 0.05 ± 0.007 µM

CCCCCCCCCCC(=O)O [undecanoic acid]
Kd [2]: 25 ± 4 µM

CC(=O)/C=C/C1=C(C)CCCC1(C)C [β-ionone]
Kd [3]: 5.1 ± 1.5 µM | Kd [4]: 41 ± 3 µM

c1ccc2[nH]ccc2c1 [indole]
% high-spin [5]: < 5%
